{"source": "patent US9980490B1", "about": "“Method of disinfecting bacterial contaminated surfaces or removing bacteria from contaminated surfaces” (priority 2014, dated 2018)", "key": {"[1]": {"details": "according to the EPA; cited from earlier work"}, "mammals and birds": {"system": "mammals and birds", "details": "EPA Biochemical Division registration as bioherbicide; cited from earlier work"}, "[2]": {"experiment": "Highest aqueous concentration before salt precipitates", "format": "physicochemical", "details": "room temperature; above this insoluble salt precipitates", "text": "The final salt (soap) product, ammonium nonanoate, is made by neutralization by mixing the oleic-derived nonanoic acid with an equal molar amount of ammonia dissolved in water until a clear one-phase solution with a pH range of 7.5 to 8.5 occurs. At this point all of the acid is converted to ammonium salt: none remains in the product. […] The final concentration of ammonium nonanoate depends on the amount of water used. The highest concentration that can be made is approximately 40% since above this concentration at room temperature, insoluble salt precipitates as a solid."}, "Staphylococcus aureous": {"system": "Staphylococcus aureous", "experiment": "Suspension time-kill test of aqueous ammonium nonanoate", "format": "cell-based", "details": "2% aqueous solution, 2 minutes", "method": "(§1) There were no other ingredients in these solutions except the ammonium salts and water. […] Suspensions of test bacteria were exposed to the 1% and 2% ammonium nonanoate solutions for specified exposure times at ambient temperature. After exposure, aliquots of the suspensions were transferred to neutralizer and assayed for survivors. Appropriate culture purity, neutralizer sterility, test population, and neutralization confirmation controls were performed. […] This is a reduction of live bacteria of >99.999%."}, "[3]": {"system": "pseudomonas aeruginosa (gram negative)", "experiment": "Suspension time-kill test of aqueous ammonium nonanoate", "format": "cell-based", "details": "2% aqueous solution, 1 minute", "method": "as §1"}, "[4]": {"system": "Enterococcus faecalis (gram positive)", "experiment": "Suspension time-kill test of aqueous ammonium nonanoate, survivors assayed after neutralization", "format": "cell-based", "details": "1% aqueous solution, 1 minute exposure, ambient temperature", "method": "as §1"}, "[5]": {"system": "Escherichia coli (gram negative)", "experiment": "Suspension time-kill test of aqueous ammonium nonanoate, survivors assayed after neutralization", "format": "cell-based", "details": "1% aqueous solution, 1 minute exposure, ambient temperature", "method": "as §1"}, "Staphlycoccus aureous": {"system": "Staphlycoccus aureous", "details": "even numbered C8 to C18 fatty acids screened; cited from earlier work"}, "Streptococcus Group A": {"system": "Streptococcus Group A", "details": "even numbered C8 to C18 fatty acids screened; cited from earlier work"}, "Candida albicans": {"system": "Candida albicans", "details": "even numbered C8 to C18 fatty acids screened; cited from earlier work"}, "mice": {"system": "mice", "details": "oral, Federal Register; cited from earlier work"}, "human skin": {"system": "human skin", "details": "12% solution, 48 hr. closed patch test; cited from earlier work"}, "rats [6]": {"system": "rats", "details": "cited from earlier work"}, "rats [7]": {"system": "rats", "details": "cited from earlier work; for LD50: oral, Federal Register"}}, "note": "Like-named read-outs stand apart in the source and are kept apart here.", "data": [{"compound": "CCCCCCCCC(=O)O.N", "note": "[ammonium nonanoate]", "values": [{"measurement": "time to biodegradation after formation", "setting": "[1]", "value": "≤ 24", "unit": "h"}, {"measurement": "toxicity to mammals and birds", "setting": "mammals and birds", "value": "non-toxic"}, {"measurement": "highest concentration that can be made in water", "setting": "[2]", "value": "approximately 40%"}, {"measurement": "reduction in population", "setting": "Staphylococcus aureous", "value": "> 99.999", "unit": "%"}, {"measurement": "reduction in population", "setting": "[3]", "value": "> 99.999", "unit": "%"}, {"measurement": "log reduction in the population", "setting": "[4]", "value": 5, "unit": "log"}, {"measurement": "reduction of live bacteria", "setting": "[4]", "value": "> 99.999", "unit": "%"}, {"measurement": "log reduction in the population", "setting": "[5]", "value": 5, "unit": "log"}, {"measurement": "reduction of live bacteria", "setting": "[5]", "value": "> 99.999", "unit": "%"}]}, {"compound": "CCCCCCCCCC(=O)O", "note": "[capric acid]", "values": [{"measurement": "antimicrobial activity relative to other fatty acids tested", "setting": "Staphlycoccus aureous", "value": "highest activity"}, {"measurement": "antimicrobial activity relative to other fatty acids tested", "setting": "Streptococcus Group A", "value": "highest activity"}, {"measurement": "antimicrobial activity relative to other fatty acids tested", "setting": "Candida albicans", "value": "highest activity"}]}, {"compound": "CCCCCCCCC(=O)O", "note": "[nonanoic acid]", "values": [{"measurement": "LD50", "setting": "mice", "value": "5,000 mg/kg"}, {"measurement": "irritation on human skin", "setting": "human skin", "value": "no irritation"}, {"measurement": "mortality", "setting": "rats [6]; 0.46 mg/liter as an aerosol for four hours", "value": "no mortality"}, {"measurement": "symptoms of toxicity", "setting": "rats [6]; atmospheric concentration (125 ppm), 6 hours", "value": "no symptoms of toxicity"}, {"measurement": "oral LD50", "setting": "rats [7]; male rats", "value": "> 9,000 mg/kg"}, {"measurement": "LD50", "setting": "rats [7]; rats, indicated by no death at 3,200 mg/kg", "value": "over 3,200 mg/kg"}, {"measurement": "LD50", "setting": "rats [7]; rats", "value": "5,000 mg/kg"}, {"measurement": "oral LD50", "setting": "rats [7]; rats, Patty's Industrial Hygiene and Toxicology", "value": 15, "unit": "g/kg"}, {"measurement": "death of rats", "setting": "rats [7]; undiluted, oral, 3,200 mg/kg body weight, Federal Register Vol. 69 No. 52 p. 12672", "value": "did not cause death of any of the rats"}]}]}
